According to patent US20040242870A1, “Antiviral methods and compounds” (priority 2000, published 2004):
Read-outs that look alike come from different tables or passages of the source.

Tests used:
Format in all cases: cell-based
HIV-1 [1] = experiment: HeLa CD4 LTR β-gal HIV-1 attachment assay; settings: for IC50: Human immunodeficiency virus 1, HeLa; for β-galactosidase production versus background: cells alone+compounds, at all times
Experimental: The attachment assay was performed with the HeLa CD4 LTR , β-gal cells available from the AIDS Research and Reference Reagent Repository. […] HeLa CD4 LTR β-gal cells express cell surface CD4 and contain an LTR β-galactosidase reporter construct. Upon infection either the Tat protein incorporated into the virion or new Tat produced following virus integration and transcription trans-activates the LTR β-gal reporter, leading to expression of the β-galactosidase enzyme. HeLa CD4 LTR β-gal cells are routinely cultured with the required selection antibiotics and screened for mycoplasma contamination. Twenty-four h prior to initiation of the assay cells were trypsinized, counted and 1×10^4 cells placed in a 0.2 cm well in media without selection antibiotics. […] A known titer of virus was then added to the wells and the incubation continued for 1 h. At the end of the incubation the wells were washed 6 times with media and the culture continued for 48 h. At 48 h the wells were washed one time with PBS and β-galactosidase enzyme expression determined by chemiluminescence per manufacturers instructions (Tropix Gal-screen™, Tropix, Bedford, Mass.). Compound toxicity was monitored on sister plates using MTS dye reduction.

HeLa CD4 LTR β-gal cells = experiment: Compound toxicity in attachment assay (MTS dye reduction, sister plates); settings: read-out: TC50 (the source's name)
Experimental: At assay termination the assay plates were stained with the soluble tetrazolium-based dye MTS (CellTiter96® Reagent Promega) to determine cell viability and quantify compound toxicity. MTS is metabolized by the mitochondria enzymes of metabolically active cells to a soluble formazan product, allowing the rapid quantitative analysis cell viability and compound cytotoxicity. […] At termination of the assay 20 μL of MTS reagent was added per well and incubated for 4 h at 37° C. Adhesive plate sealers were used in place of the lids, the sealed plate was inverted several times to mix the soluble formazan product and the plate was read spectrophotometrically at 490 nm with a Molecular Devices Vmax plate reader.
The attachment assay was performed with the HeLa CD4 LTR , β-gal cells available from the AIDS Research and Reference Reagent Repository. […] HeLa CD4 LTR β-gal cells express cell surface CD4 and contain an LTR β-galactosidase reporter construct. Upon infection either the Tat protein incorporated into the virion or new Tat produced following virus integration and transcription trans-activates the LTR β-gal reporter, leading to expression of the β-galactosidase enzyme. HeLa CD4 LTR β-gal cells are routinely cultured with the required selection antibiotics and screened for mycoplasma contamination. Twenty-four h prior to initiation of the assay cells were trypsinized, counted and 1×10^4 cells placed in a 0.2 cm well in media without selection antibiotics. Media was removed at 24 h and compound in media placed on the cells and incubated for 15 to 30 min at 37° C. A known titer of virus was then added to the wells and the incubation continued for 1 h. At the end of the incubation the wells were washed 6 times with media and the culture continued for 48 h. At 48 h the wells were washed one time with PBS and β-galactosidase enzyme expression determined by chemiluminescence per manufacturers instructions (Tropix Gal-screen™, Tropix, Bedford, Mass.). Compound toxicity was monitored on sister plates using MTS dye reduction.

HIV-1 [2] = experiment: HeLa CD4 LTR β-gal/HL2/3 HIV-1 fusion assay; settings: fusion assay
Text: This assay uses the HeLa CD4 LTR β-gal and HL2-3 cells available from the AIDS Research and Reference Reagent Repository. The HL2/3 are derived from HeLa cells and engineered to express HIV gp120 on their cell surface and Tat protein in their cytoplasma. Thus following gp 120/CD4/coreceptor-mediated fusion; cytoplasmic mixing results in the HL2/3 cell-derived Tat trans-activation of the β-galactosidase reporter. […] Twenty-four h prior to initiation of the assay cells were trypsinized, counted and 5×10^3 cells placed in a 0.2 cm well in media without selection antibiotics. To initiate the fusion assay HeLa CD4 LTR β-gal (5×10^3 cells per 0.2 cm well) were incubated with compound for 1 h at 37° C. HL2/3 cells (5×10^3) were added to the 0.2 cm well and the incubation continued for 48 h. At 48 h the wells were washed 1 time with PBS and β-galactosidase enzyme expression determined by chemiluminescence per manufacturers instructions (Tropix Gal-screen™, Tropix, Bedford, Mass.). Compound toxicity was monitored on sister plates using MTS dye reduction.

[3] = Experiment 1, pretreat 4 h, read-out: IC50
[4] = Experiment 1, pretreat 24 h, read-out: IC50
[5] = Experiment 2, pretreat 4 h, read-out: IC50
[6] = Experiment 2, pretreat 24 h, read-out: IC50

## CC(C)=CCCC1(C)CCc2c(O)cc(C(C)(C)CCCC(C)C)cc2O1 (centres unmarked) [IG-08, 3,4-Dihydro-2-methyl-2-(4-methyl-3-pentenyl)-7-(1,1,5-trimethylhexyl)-2H-1-benzopyran-5-ol]
HIV-1 [1]; Experiment 1, pretreat 0 h
  IC50: 16 µM
HIV-1 [1]; [3]
  IC50: 10.8 µM
HIV-1 [1]; [4]
  IC50: 7.4 µM
HIV-1 [1]; Experiment 2, pretreat 0 h
  IC50: 0.9 µM
HIV-1 [1]; [5]
  IC50: 11 µM
HIV-1 [1]; [6]
  IC50: 2.6 µM
HIV-1 [1]
  β-galactosidase production versus background: suppressed β-galactosidase production below background
HIV-1 [1]; pretreat 0 h
  Comment: suppression of β-galactosidase activity: Suppression of μ-galactosidase
HIV-1 [1]; pretreat 4 h
  Comment: suppression of β-galactosidase activity: Suppression of μ-galactosidase
HIV-1 [1]; pretreat 24 h
  Comment: suppression of β-galactosidase activity: Suppression of μ-galactosidase
HeLa CD4 LTR β-gal cells; Experiment 1, pretreat 0 h
  CC50: > 50 µM
HeLa CD4 LTR β-gal cells; Experiment 1, pretreat 4 h
  CC50: > 50 µM
HeLa CD4 LTR β-gal cells; Experiment 1, pretreat 24 h
  CC50: > 50 µM
HeLa CD4 LTR β-gal cells; Experiment 2, pretreat 0 h
  CC50: > 50 µM
HeLa CD4 LTR β-gal cells; Experiment 2, pretreat 4 h
  CC50: 29 µM
HeLa CD4 LTR β-gal cells; Experiment 2, pretreat 24 h
  CC50: 12.2 µM

## COc1cc(C(C)(C)CCCC(C)C)cc(OC)c1OC [IG-07, 1-(1,1,5Trimethylhexyl)-3,4,5-trimethoxybenzene]
HIV-1 [1]; Experiment 1, pretreat 0 h, read-out: IC50
  IC50: > 50 µM
HIV-1 [1]; [3]
  IC50: > 50 µM
HIV-1 [1]; [4]
  IC50: > 50 µM
HIV-1 [1]; Experiment 2, pretreat 0 h, read-out: IC50
  IC50: 16 µM
HIV-1 [1]; [5]
  IC50: > 50 µM
HIV-1 [1]; [6]
  IC50: > 50 µM
HIV-1 [1]; at lower concentrations of compounds, two independent experiments
  transient suppression of virus replication: observed consistently
HIV-1 [1]
  β-galactosidase production versus background: suppressed β-galactosidase production below background

## C=C(C)[C@@H]1CCC(C)=C[C@H]1c1c(O)cc(CCCCC)cc1O [Cannabidiol, reference compound]
HIV-1 [1]
  β-galactosidase production versus background: suppressed β-galactosidase production below background
HIV-1 [2]
  Comments: suppression of β-galactosidase activity: Suppression of β-galactosidase
